These results are taken from patent US20150225404A1, “PYRIDINE DERIVATIVE AND MEDICINE” (NIPPON SHINYAKU CO., LTD., priority 2012, published 2015).

By IC50 is commonly meant the midpoint of a concentration-inhibition curve.

Counter-ions that a name gives are not always drawn.

For this test, the target named is T1, human mGluR5 (Homo sapiens, UniProt P41594).
T1 construct: expressed in transfected cells
T1 sequence (P41594 21-1212): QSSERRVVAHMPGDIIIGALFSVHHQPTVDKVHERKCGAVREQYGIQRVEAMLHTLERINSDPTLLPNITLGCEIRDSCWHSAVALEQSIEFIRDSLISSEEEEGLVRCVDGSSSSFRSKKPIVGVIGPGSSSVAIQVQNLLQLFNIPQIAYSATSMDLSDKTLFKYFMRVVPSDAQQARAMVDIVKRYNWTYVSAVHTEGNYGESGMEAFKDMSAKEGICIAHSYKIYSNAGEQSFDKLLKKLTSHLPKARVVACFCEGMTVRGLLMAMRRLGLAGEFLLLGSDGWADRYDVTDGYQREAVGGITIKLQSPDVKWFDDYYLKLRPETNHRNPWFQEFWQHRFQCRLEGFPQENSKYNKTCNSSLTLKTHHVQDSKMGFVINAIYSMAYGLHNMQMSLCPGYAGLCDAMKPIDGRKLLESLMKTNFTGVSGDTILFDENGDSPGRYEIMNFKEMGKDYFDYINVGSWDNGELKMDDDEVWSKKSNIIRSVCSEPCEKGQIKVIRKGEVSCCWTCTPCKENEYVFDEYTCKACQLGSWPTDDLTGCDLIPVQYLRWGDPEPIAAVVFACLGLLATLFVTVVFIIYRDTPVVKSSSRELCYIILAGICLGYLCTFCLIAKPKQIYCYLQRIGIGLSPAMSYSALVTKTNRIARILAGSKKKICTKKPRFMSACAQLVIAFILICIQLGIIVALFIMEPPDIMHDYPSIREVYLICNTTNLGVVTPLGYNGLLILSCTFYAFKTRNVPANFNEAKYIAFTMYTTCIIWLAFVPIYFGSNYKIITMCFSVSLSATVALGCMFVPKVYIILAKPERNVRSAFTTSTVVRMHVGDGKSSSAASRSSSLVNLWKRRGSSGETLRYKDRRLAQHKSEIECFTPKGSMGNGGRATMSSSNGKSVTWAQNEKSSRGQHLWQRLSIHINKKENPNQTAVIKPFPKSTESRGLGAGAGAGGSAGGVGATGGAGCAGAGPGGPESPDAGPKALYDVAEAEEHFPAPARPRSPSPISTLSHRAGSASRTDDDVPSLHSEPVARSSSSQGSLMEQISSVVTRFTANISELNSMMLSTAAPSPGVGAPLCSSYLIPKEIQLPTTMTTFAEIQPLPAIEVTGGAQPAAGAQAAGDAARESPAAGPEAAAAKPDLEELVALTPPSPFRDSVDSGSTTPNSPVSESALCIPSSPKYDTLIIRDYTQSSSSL
Put plainly: Experiment for receptor function of mGluR5 (Ca2+-dependent fluorescence, FLIPR, CHO-K1 cells stably expressing human mGluR5). The class given is cell-based. As to conditions: L-glutamic acid 10 μM, Fluo-4 fluorescence. The method, then:
Stable expression cells in which the human mGluR5 gene had been introduced into a Chinese hamster ovary cell (CHO-K1) were used for evaluation. The cells were suspended in a growth medium (MEM-α (D8042, available from Sigma) containing 10% inactivated FBS (Cat. No. 171012, available from CCB) and 2 mM glutamax (Cat. No. 35050, available from GIBCO)) and seeded on a black clear-bottom 96-well plate at 100,000 cells per well. One day after seeding, the medium was replaced by a medium (Hanks' balanced salt solution (HBSS buffer solution) (20 mM HEPES, 2.5 mM probencide (165-15472, available from Wako Pure Chemical Industries, Ltd.), and 10×HBSS (14065-056, available from Gibco) diluted 10 times, pH 7.4)) containing a calcium-sensitive dye Fluo-4 AM at a final concentration of […] (F312, available from Dojindo Laboratories) and Pluronic F-127 at a final concentration of 0.0145% (P-2443, available from Sigma), followed by incubation at 37° C. for one hour, thereby loading Fluo-4 AM into the cells.
Subsequently, the cells were washed twice with an HBSS buffer solution, to which was subsequently added the same buffer solution. Twenty minutes thereafter, the plate was transferred into a fluorescence screening system (FLIPR TETRA, available from Molecular Devices, LLC) and measured for a Ca^2+-dependent fluorescence change in the cells.
First of all, a fluorescence baseline was measured, and thereafter, fluorescence measurement was performed for 2 minutes while adding a test substance, an excessive amount of 6-methyl-2-(phenylethynyl)pyridine (hereinafter referred to as “MPEP”) (final concentration: 10 μM), or the medium. Thereafter, fluorescence measurement was carried out for one minute while adding L-glutamic acid (final concentration: 10 μM).
While taking a fluorescence intensity caused by L-glutamic acid as 100% and a fluorescence intensity caused by L-glutamic acid in the presence of MPEP as 0%, respectively, function inhibitory activity against human mGluR5 was evaluated from the fluorescence intensity caused by L-glutamic acid in the presence of the test substance at each concentration, and an IC50 value was estimated according to a logistic equation (SAS System).
`CNc1cccc(COc2cc(-c3cncnc3)c3c(n2)CCCC3)n1` [Example 158, N-Methyl-6-({[4-(pyrimidin-5-yl)-5,6,7,8-tetrahydroquinolin-2-yl]oxy}methyl)pyridin-2-amine] had a 50% inhibitory concentration (IC50) of 253 nM.
The result for `COCc1cccc(COc2cc(-c3cncnc3)c3c(n2)CCCC3)n1` [Example 160, 2-{[6-(Methoxymethyl)pyridin-2-yl]methoxy}-4-(pyrimidin-5-yl)-5,6,7,8-tetrahydroquinoline hydrochloride] reads 152 nM; that for `C=Cc1cccc(COc2cc(-c3cncnc3)c3c(n2)CCCC3)n1` [Example 161, 2-[(6-Ethenylpyridin-2-yl)methoxy]-4-(pyrimidin-5-yl)-5,6,7,8-tetrahydroquinoline], 359 nM.
Next, `Fc1ncc(-c2cc(OCc3ccccn3)nc3c2CCCC3)cn1` [Example 167, 4-(2-Fluoropyrimidin-5-yl)-2-(pyridin-2-ylmethoxy)-5,6,7,8-tetrahydroquinoline hydrochloride]: 20.4 nM; `Cc1ncc(-c2cc(OCc3ccccn3)nc3c2CCCC3)cn1` [Example 168, 4-(2-Methylpyrimidin-5-yl)-2-(pyridin-2-ylmethoxy)-5,6,7,8-tetrahydroquinoline]: 153 nM.
Next, `Nc1ncc(-c2cc(OCc3ccccn3)nc3c2CCCC3)cn1` [Example 169, 5-[2-(Pyridin-2-ylmethoxy)-5,6,7,8-tetrahydroquinolin-4-yl]pyrimidin-2-amine]: 13.9 nM; `Clc1ncncc1-c1cc(OCc2ccccn2)nc2c1CCCC2` [Example 176, 4-(4-Chloropyrimidin-5-yl)-2-(pyridin-2-ylmethoxy)-5,6,7,8-tetrahydroquinoline hydrochloride]: 70.8 nM.
In turn, `Cc1ncc(-c2cc(OCc3cccc(F)n3)nc3c2CCCC3)cn1` [Example 185, 2-[(6-Fluoropyridin-2-yl)methoxy]-4-(2-methylpyrimidin-5-yl)-5,6,7,8-tetrahydroquinoline] came in with an IC50 of 26 nM.
Next, `Cc1ncc(-c2cc(OCc3ccc(F)cn3)nc3c2CCCC3)cn1` [Example 186, 2-[(5-Fluoropyridin-2-yl)methoxy]-4-(2-methylpyrimidin-5-yl)-5,6,7,8-tetrahydroquinoline]: 26 nM; `c1ccc(COc2cc(-c3cnccn3)c3c(n2)CCCC3)nc1` [Example 194, 4-(Pyrazin-2-yl)-2-(pyridin-2-ylmethoxy)-5,6,7,8-tetrahydroquinoline hydrochloride]: 11.4 nM.
`Clc1cncc(-c2cc(OCc3ccccn3)nc3c2CCCC3)n1` [Example 195, 4-(6-Chloropyrazin-2-yl)-2-(pyridin-2-ylmethoxy)-5,6,7,8-tetrahydroquinoline] showed an IC50 of 24.3 nM.
The result for `Clc1cnc(-c2cc(OCc3ccccn3)nc3c2CCCC3)cn1` [Example 196, 4-(5-Chloropyrazin-2-yl)-2-(pyridin-2-ylmethoxy)-5,6,7,8-tetrahydroquinoline hydrochloride] reads 170 nM; that for `Clc1nccnc1-c1cc(OCc2ccccn2)nc2c1CCCC2` [Example 197, 4-(3-Chloropyrazin-2-yl)-2-(pyridin-2-ylmethoxy)-5,6,7,8-tetrahydroquinoline hydrochloride], 93.7 nM; that for `Fc1cncc(-c2cc(OCc3ccccn3)nc3c2CCCC3)n1` [Example 199, 4-(6-Fluoropyrazin-2-yl)-2-(pyridin-2-ylmethoxy)-5,6,7,8-tetrahydroquinoline hydrochloride], 24.5 nM.
Consider `Fc1nccnc1-c1cc(OCc2ccccn2)nc2c1CCCC2` [Example 200, 4-(3-Fluoropyrazin-2-yl)-2-(pyridin-2-ylmethoxy)-5,6,7,8-tetrahydroquinoline hydrochloride], for which the IC50 turned out to be 144 nM. This IC50 lies about 5.9-fold higher than the previous one.
`Cc1cncc(-c2cc(OCc3ccccn3)nc3c2CCCC3)n1` [Example 201, 4-(6-Methylpyrazin-2-yl)-2-(pyridin-2-ylmethoxy)-5,6,7,8-tetrahydroquinoline] gave an IC50 of 36.2 nM. This IC50 lies about 4-fold lower than the previous one.
Consider `CCc1cncc(-c2cc(OCc3ccccn3)nc3c2CCCC3)n1` [Example 202, 4-(6-Ethylpyrazin-2-yl)-2-(pyridin-2-ylmethoxy)-5,6,7,8-tetrahydroquinoline], for which the IC50 amounted to 43 nM.
`OCc1cncc(-c2cc(OCc3ccccn3)nc3c2CCCC3)n1` [Example 204, {6-[2-(Pyridin-2-ylmethoxy)-5,6,7,8-tetrahydroquinolin-4-yl]pyrazin-2-yl}methanol] yielded an IC50 of 230 nM.
As for `COc1cncc(-c2cc(OCc3ccccn3)nc3c2CCCC3)n1` [Example 205, 4-(6-Methoxypyrazin-2-yl)-2-(pyridin-2-ylmethoxy)-5,6,7,8-tetrahydroquinoline hydrochloride], the IC50 stood at 93 nM.
`Nc1cncc(-c2cc(OCc3ccccn3)nc3c2CCCC3)n1` [Example 206, 6-[2-(Pyridin-2-ylmethoxy)-5,6,7,8-tetrahydroquinolin-4-yl]pyrazin-2-amine hydrochloride] gave an IC50 of 36.5 nM.
Consider `Nc1cnc(-c2cc(OCc3ccccn3)nc3c2CCCC3)cn1` [Example 207, 5-[2-(Pyridin-2-ylmethoxy)-5,6,7,8-tetrahydroquinolin-4-yl]pyrazin-2-amine], for which the IC50 was 346 nM.
`CNc1cncc(-c2cc(OCc3ccccn3)nc3c2CCCC3)n1` [Example 208, N-Methyl-6-[2-(pyridin-2-ylmethoxy)-5,6,7,8-tetrahydroquinolin-4-yl]pyrazin-2-amine hydrochloride]: half-maximal inhibition (IC50) was put at 125 nM.
`Fc1ccnc(-c2cc(OCc3ccccn3)nc3c2CCCC3)c1` [Example 223, 4-(4-Fluoropyridin-2-yl)-2-(pyridin-2-ylmethoxy)-5,6,7,8-tetrahydroquinoline]: the 50% inhibitory concentration (IC50) was determined as 47.3 nM. This IC50 lies about 2.6-fold lower than the previous one.
In turn, `c1ccc(COc2cc(-c3cncs3)c3c(n2)CCCC3)nc1` [Example 224, 2-(Pyridin-2-ylmethoxy)-4-(1,3-thiazol-5-yl)-5,6,7,8-tetrahydroquinoline] returned a concentration for half-maximal inhibition (IC50) of 25.6 nM.
The result for `Cc1ncc(-c2cc(OCc3ccccn3)nc3c2CCCC3)s1` [Example 225, 4-(2-Methyl-1,3-thiazol-5-yl)-2-(pyridin-2-ylmethoxy)-5,6,7,8-tetrahydroquinoline hydrochloride] reads 102 nM; that for `c1ccc(COc2cc(-c3cccnc3)c3c(n2)CCCCC3)nc1` [Example 232, 4-(Pyridin-3-yl)-2-(pyridin-2-ylmethoxy)-6,7,8,9-tetrahydro-5H-cyclohepta[b]pyridine], 28.9 nM; that for `c1ccc(COc2cc(-c3cnccn3)c3c(n2)CCCCC3)nc1` [Example 234, 4-(Pyrazin-2-yl)-2-(pyridin-2-ylmethoxy)-6,7,8,9-tetrahydro-5H-cyclohepta[b]pyridine hydrochloride], 41.4 nM.
Molecule `C=C1CCc2c(-c3cncnc3)cc(OCc3ccccn3)nc21` [Example 237, 7-Methylidene-2-(pyridin-2-ylmethoxy)-4-(pyrimidin-5-yl)-6,7-dihydro-5H-cyclopenta[b]pyridine] gave a half-maximal inhibitory concentration (IC50) of 34.5 nM.
As for `CCC1CCc2c(-c3cncnc3)cc(OCc3ccccn3)nc21` (centres unmarked) [Example 240, 7-Ethyl-2-(pyridin-2-ylmethoxy)-4-(pyrimidin-5-yl)-6,7-dihydro-5H-cyclopenta[b]pyridine], the IC50 is 24 nM.
For `N#Cc1cccc(COc2cc(-c3cccnc3)c3c(n2)CCC3)c1` [Example 245, 3-({[4-(Pyridin-3-yl)-6,7-dihydro-5H-cyclopenta[b]pyridin-2-yl]oxy}methyl)benzonitrile], the midpoint of inhibition, the IC50, lay at 39 nM.
Next, `N#Cc1ccc(COc2cc(-c3cncc(CO)c3)c3c(n2)CCC3)cc1` [Example 247, 4-[({4-[5-(Hydroxymethyl)pyridin-3-yl]-6,7-dihydro-5H-cyclopenta[b]pyridin-2-yl}oxy)methyl]benzonitrile]: 52 nM; `OCc1cncc(-c2cc(OCc3ccc(F)cc3)nc3c2CCC3)c1` [Example 248, (5-{2-[(4-Fluorobenzyl)oxy]-6,7-dihydro-5H-cyclopenta[b]pyridin-4-yl}pyridin-3-yl)methanol]: 95 nM.
The molecule `OCc1cncc(-c2cc(OCc3cccc(F)c3)nc3c2CCC3)c1` [Example 249, (5-{2-[(3-Fluorobenzyl)oxy]-6,7-dihydro-5H-cyclopenta[b]pyridin-4-yl}pyridin-3-yl)methanol] gave a half-maximal inhibitory concentration (IC50) of 53 nM. Compared with the last molecule, the IC50 is about 1.8-fold lower.
As to `N#Cc1ccc(COc2cc(-c3cncc(F)c3)c3c(n2)CCC3)nc1` [Example 250, 6-({[4-(5-Fluoropyridin-3-yl)-6,7-dihydro-5H-cyclopenta[b]pyridin-2-yl]oxy}methyl)pyridine-3-carbonitrile], the half-maximal inhibitory concentration (IC50) is 10.6 nM.
In turn, `N#Cc1cccc(COc2cc(-c3ccnc(F)c3)c3c(n2)CCC3)c1` [Example 251, 3-({[4-(2-Fluoropyridin-4-yl)-6,7-dihydro-5H-cyclopenta[b]pyridin-2-yl]oxy}methyl)benzonitrile] displayed an IC50 of 94.3 nM.
